From patent US11299762B2, “Nanoscale motion detector” (Ecole Polytechnique Fédérale de Lausanne (EPFL), priority 2011, dated 2022) come the findings set out here.

In one assay the test system is human Topoisomerase II. In words: TopoII adsorbed on AFM cantilever, fluctuation recording (drug affinity detection). In kind it is biochemical. From the text: This enzyme requires ATP to modify its 3D conformation and to act on DNA. TopoII is also the preferred target of numerous anticancerous drugs such as aclarubicin. This drug binds to TopoII, freezes its conformation and inhibits its action (15). In the first experiment, TopoII was adsorbed onto both sides of a cantilever. It was than introduced in the analysis chamber of an AFM and its laser beam was collimated on the apex of the cantilever. The reflection of the laser beam, sent to a split photo-detector, allowed detecting the fluctuations of the cantilever as depicted in FIG. 1 and, more in detail, FIG. 3,
The experiment consisted in injecting successively an ATP depleted buffer, an ATP enriched solution and an aclarubicin+ATP rich media in the analysis chamber and by recording the resulting fluctuations of the cantilever.
This experiment was performed using an APTES-coated AFM cantilever. The different buffers injected during experiment are: buffer (50 mM Tris-HCl (pH 8.0), 150 mM NaCl, 10 mM MgCl2, and 0.5 mM dithiothreitol), 0.02 mM ATP and 0.02 mM ATP plus 100 μM aclarubicin.
The media used in this experiment are: buffer (50 mM Tris-HCl (pH 8.0), 150 mM NaCl, 10 mM MgCl2 and 0.5 mM dithiothreitol.), 0.02 mM ATP, 0.2 mM ATP, 2 mM ATP and again buffer.

The next assay has as its system Escherichia coli. In words: Antibiotic sensitivity detection, bacteria adsorbed on cantilever. In kind it is cell-based. The following applies: FIG. 8. From the text:
Motile bacteria (Escherichia coli), resistant to kanamycin but sensitive to ampicillin, were adsorbed to both sides of a cantilever. The bacteria were successively exposed to both antibiotics to determine the impact on the bacterial motion/viability (see FIG. 7).
In these experiments the cantilever was introduced in the analysis chamber and exposed to a solution containing bacteria that eventually attached to its surface. The system was then exposed to: 1) nutriment depleted buffer, 2) nutriment solution (Lysogeny broth (LB)), 3) kanamycin-enriched LB solution 4) LB solution 5) ampicillins-enriched LB solution and, finally, 6) LB solution.
The experiment was performed using an APTES-coated AFM cantilever. The different phases of the experiment are depicted: PBS, bacteria in PBS, bacteria in LB, exposure to kanamycin, washing with LB, exposure to ampicillin, washing with LB.

A further assay relates to Staphylococcus aureus. In words: Antibiotic sensitivity detection, non-motile bacteria on cantilever. In kind it is cell-based. The following applies: exposure to ampicillin in LB; FIG. 10. From the text:
Later on, similar experiments were repeated using non-motile bacteria (Staphylococcus aureus) susceptible to ampicillin. […] The results of the cantilever motion RMS are depicted in FIG. 10. In this experiment an APTES-coated AFM cantilever was used. The different phases of the experiment are depicted: PBS, bacteria in PBS, bacteria in LB and exposure to ampicillin.

The subject of assay [1] is TopoII-supercoiled DNA complexes. In words: TopoII-supercoiled DNA complexes on AFM cantilever, fluctuation recording. It counts as biochemical, human. Particulars: 0.02 mM ATP, compared to ATP free buffer or AMPPMP solution. The protocol:
As mentioned previously, TopoII interacts with DNA to simplify its topology. To record this reaction with our method we deposited TopoII-supercoiled DNA complexes on both sides of an AFM cantilever, as depicted in FIG. 6.
The experiment was performed using an APTES-coated AFM cantilever. The different media injected during experiment are: buffer (50 mM Tris-HCl (pH 8.0), 150 mM NaCl, 10 mM MgCl2 and 0.5 mM dithiothreitol), 0.02 mM. AMPPNP (an ATP analogue) and 0.02 mM ATP. […] Panel B depicts the experimental set-up to follow TopoII-DNA interactions. a) DNA molecule, b) TopoII, c) AFM cantilever, d) laser beam. Panel C evidences the differences in terms of the variance.
Here again the cantilever covered with TopoII-supercoiled DNA complexes was inserted in the analysis chamber and exposed to several consecutive liquid environments: 1) ATP free solution, 2) buffer containing a non functional ATP substitute, referred to as AMPPMP 3) ATP enriched medium. AMPPMP is a non-hydrolysable ATP analogue which inhibits TopoII activity.

The structures appear in SMILES notation.

Turning to `CC[C@@]1(O)C[C@H](O[C@H]2C[C@H](N(C)C)[C@H](O[C@H]3C[C@H](O)[C@H](O[C@H]4CCC(=O)[C@H](C)O4)[C@H](C)O3)[C@H](C)O2)c2c(cc3c(c2O)C(=O)c2c(O)cccc2C3=O)[C@H]1C(=O)OC` [aclarubicin], the “TopoII conformational state (cantilever fluctuation)” value with human Topoisomerase II (0.02 mM ATP plus 100 μM aclarubicin, FIG. 4) is given as “again in equilibrium”.
On to `CC1(C)S[C@@H]2[C@H](NC(=O)[C@H](N)c3ccccc3)C(=O)N2[C@H]1C(=O)O` [ampicillin], for which the “bacterial motion (cantilever fluctuations)” value in the assay on Escherichia coli (antibiotic-enriched LB solution, E. coli resistant to kanamycin, sensitive to ampicillin) is listed as “dramatically decreased”. Besides, in the assay on Escherichia coli (step 6, LB solution after ampicillin exposure), the “bacterial motion after washing with LB solution” value is recorded as “remained at the same value”. In the assay on Staphylococcus aureus, the “internal movements of bacteria (cantilever motion)” value is on record as “decreased dramatically”.
Regarding `Nc1ncnc2c1ncn2[C@@H]1O[C@H](COP(=O)(O)OP(=O)(O)OP(=O)(O)O)[C@@H](O)[C@H]1O` [ATP], the “variance of the cantilever fluctuations” value in the assay on human Topoisomerase II (0.02 mM ATP, compared to ATP depleted buffer or aclarubicin, FIG. 4) is given as “significantly higher”. Besides, the “conformational changes induced on TopoII (cantilever fluctuation variance)” value with human Topoisomerase II (0.02 mM, 0.2 mM, 2 mM ATP, FIG. 5) is “dependent on its concentration”. Also, in assay [1], the cantilever fluctuation variance result is reported as “significant increase”.
